Laboratory results published in patent publication US10526323B2, “Indazole and azaindazole substituted compounds as mGluR4 allosteric potentiators, compositions, and methods of treating neurological dysfunction” (Vanderbilt University, priority 2015, dated 2020).

Target: mGluR4 (UniProt Q14833)
Test: mGluR4 potentiation assay: increase in response to an EC20 concentration of agonist (species not given)
Format: cell-based
Settings: EC50 for potentiation of mGluR4; table does not state human or rat
Procedure, shortened: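 Human mGluR4 was expressed in CHO cells read with a Ca2+-sensitive dye; rat mGluR4 was co-expressed with GIRK in […] read by thallium flux. Potentiation is the rise over agonist-alone response, with EC50 and maximal potentiation from non-linear fits.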

| EC50 [nM] | SMILES |
| --- | --- |
| 145 | Cc1nn(CC2CCCC2)c2ccc(Nc3n[nH]c4cccnc34)cc12 [Example 106, N-(1-(cyclopentylmethyl)-3-methyl-1H-indazol-5-yl)-1H-pyrazolo[4,3-b]pyridin-3-amine] |
| 374 | Cc1nn(C2CCC2)c2ccc(Nc3n[nH]c4cccnc34)cc12 [Example 107, N-(1-cyclobutyl-3-methyl-1H-indazol-5-yl)-1H-pyrazolo[4,3-b]pyridin-3-amine] |
| 345 | Cc1nn(C)c2ccc(Nc3n[nH]c4cccnc34)cc12 [Example 108, N-(1,3-dimethyl-1H-indazol-5-yl)-1H-pyrazolo[4,3-b]pyridin-3-amine] |
| 59 | C=CCn1nc(C)c2cc(Nc3n[nH]c4cccnc34)ccc21 [Example 109, N-(1-allyl-3-methyl-1H-indazol-5-yl)-1H-pyrazolo[4,3-b]pyridin-3-amine] |
| 119 | Cn1nc(C(F)(F)F)c2cc(Nc3n[nH]c4cccnc34)ccc21 [Example 110, N-(1-methyl-3-(trifluoromethyl)-1H-indazol-5-yl)-1H-pyrazolo[4,3-b]pyridin-3-amine] |
| 36 | Cc1nn(CC2CC2)c2ccc(Nc3n[nH]c4cccnc34)cc12 [Example 111, N-(1-(cyclopropylmethyl)-3-methyl-1H-indazol-5-yl)-1H-pyrazolo[4,3-b]pyridin-3-amine] |
| 95 | Cc1nn(CC(C)C)c2ccc(Nc3n[nH]c4cccnc34)cc12 [Example 112, N-(1-isobutyl-3-methyl-1H-indazol-5-yl)-1H-pyrazolo[4,3-b]pyridin-3-amine] |
| 123 | CCCn1nc(C)c2cc(Nc3n[nH]c4cccnc34)ccc21 [Example 113, N-(3-methyl-1-propyl-1H-indazol-5-yl)-1H-pyrazolo[4,3-b]pyridin-3-amine] |
| 45 | CCCCn1nc(C)c2cc(Nc3n[nH]c4cccnc34)ccc21 [Example 114, N-(1-butyl-3-methyl-1H-indazol-5-yl)-1H-pyrazolo[4,3-b]pyridin-3-amine] |
| 135 | Cc1nn(CC2CC(c3ncccc3F)=NO2)c2ccc(Nc3n[nH]c4cccnc34)cc12 (centres unmarked) [Example 115, N-(1-((3-(3-fluoropyridin-2-yl)-4,5-dihydroisoxazol-5-yl)methyl)-3-methyl-1H-indazol-5-yl)-1H-pyrazolo[4,3-b]pyridin-3-amine] |
| 96 | Cc1nn(CC(F)(F)F)c2ccc(Nc3n[nH]c4cccnc34)cc12 [Example 116, N-(3-methyl-1-(2,2,2-trifluoroethyl)-1H-indazol-5-yl)-1H-pyrazolo[4,3-b]pyridin-3-amine] |
| 1460 | Cc1nn(C2CCOCC2)c2ccc(Nc3n[nH]c4cccnc34)cc12 [Example 117, N-(3-methyl-1-(tetrahydro-2H-pyran-4-yl)-1H-indazol-5-yl)-1H-pyrazolo[4,3-b]pyridin-3-amine] |
| 867 | COC(=O)Cn1nc(C)c2cc(Nc3n[nH]c4cccnc34)ccc21 [Example 118, methyl 2-(5-((1H-pyrazolo[4,3-b]pyridin-3-yl)amino)-3-methyl-1H-indazol-1-yl)acetate] |
| 295 | Cc1nn(CC(C)(C)C)c2ccc(Nc3n[nH]c4cccnc34)cc12 [Example 119, N-(3-methyl-1-neopentyl-1H-indazol-5-yl)-1H-pyrazolo[4,3-b]pyridin-3-amine] |
| 144 | Cc1nn(CC2CC(C(C)C)=NO2)c2ccc(Nc3n[nH]c4cccnc34)cc12 (centres unmarked) [Example 120, N-(1-((3-isopropyl-4,5-dihydroisoxazol-5-yl)methyl)-3-methyl-1H-indazol-5-yl)-1H-pyrazolo[4,3-b]pyridin-3-amine] |
| 377 | CC1=NOC(Cn2nc(C)c3cc(Nc4n[nH]c5cccnc45)ccc32)C1 (centres unmarked) [Example 121, N-(3-methyl-1-((3-methyl-4,5-dihydroisoxazol-5-yl)methyl)-1H-indazol-5-yl)-1H-pyrazolo[4,3-b]pyridin-3-amine] |
| 49 | C=C(C)Cn1nc(C)c2cc(Nc3n[nH]c4cccnc34)ccc21 [Example 122, N-(3-methyl-1-(2-methylallyl)-1H-indazol-5-yl)-1H-pyrazolo[4,3-b]pyridin-3-amine] |
| 218 | [2H]C([2H])([2H])n1nc(C)c2cc(Nc3n[nH]c4cccnc34)ccc21 [Example 123, N-(3-methyl-1-(methyl-d3)-1H-indazol-5-yl)-1H-pyrazolo[4,3-b]pyridin-3-amine] |
| 109 | [2H]C([2H])(C)n1nc(C)c2cc(Nc3n[nH]c4cccnc34)ccc21 [Example 124, N-(1-(ethyl-1,1-d2)-3-methyl-1H-indazol-5-yl)-1H-pyrazolo[4,3-b]pyridin-3-amine] |
| 1530 | Cc1nn(Cc2ccc3ccccc3n2)c2ccc(Nc3n[nH]c4cccnc34)cc12 [Example 125, N-(3-methyl-1-(quinolin-2-ylmethyl)-1H-indazol-5-yl)-1H-pyrazolo[4,3-b]pyridin-3-amine] |
| 264 | Cc1noc(Cn2nc(C)c3cc(Nc4n[nH]c5cccnc45)ccc32)n1 [Example 126, N-(3-methyl-1-((3-methyl-1,2,4-oxadiazol-5-yl)methyl)-1H-indazol-5-yl)-1H-pyrazolo[4,3-b]pyridin-3-amine] |

| EC50 [nM] | SMILES |
| --- | --- |
| 154 | [2H]C([2H])(C)n1nc(C)c2cc(Nc3n[nH]c4nccnc34)ccc21 [Example 127, N-(1-(ethyl-1,1-d2)-3-methyl-1H-indazol-5-yl)-1H-pyrazolo[3,4-b]pyrazin-3-amine] |
| 49 | C=C(C)Cn1nc(C)c2cc(Nc3n[nH]c4nccnc34)ccc21 [Example 128, N-(3-methyl-1-(2-methylallyl)-1H-indazol-5-yl)-1H-pyrazolo[3,4-b]pyrazin-3-amine] |
| 1300 | Cc1nnc(Cn2nc(C)c3cc(Nc4n[nH]c5cccnc45)ccc32)o1 [Example 129, N-(3-methyl-1-((5-methyl-1,3,4-oxadiazol-2-yl)methyl)-1H-indazol-5-yl)-1H-pyrazolo[4,3-b]pyridin-3-amine] |
| 63 | Cc1cc(Cn2nc(C)c3cc(Nc4n[nH]c5cccnc45)ccc32)on1 [Example 130, N-(3-methyl-1-((3-methylisoxazol-5-yl)methyl)-1H-indazol-5-yl)-1H-pyrazolo[4,3-b]pyridin-3-amine] |
| 107 | CCCn1nc(C)c2cc(Nc3n[nH]c4nccnc34)ccc21 [Example 131, N-(3-methyl-1-propyl-1H-indazol-5-yl)-1H-pyrazolo[3,4-b]pyrazin-3-amine] |
| 330 | Cc1nn(CCN2CCOCC2)c2ccc(Nc3n[nH]c4cccnc34)cc12 [Example 132, N-(3-methyl-1-(2-morpholinoethyl)-1H-indazol-5-yl)-1H-pyrazolo[4,3-b]pyridin-3-amine] |
| 379 | COCCn1nc(C)c2cc(Nc3n[nH]c4cccnc34)ccc21 [Example 133, N-(1-(2-methoxyethyl)-3-methyl-1H-indazol-5-yl)-1H-pyrazolo[4,3-b]pyridin-3-amine] |
| 77 | Cc1nn(CCC(C)Cl)c2ccc(Nc3n[nH]c4cccnc34)cc12 (centres unmarked) [Example 134, N-(1-(3-chlorobutyl)-3-methyl-1H-indazol-5-yl)-1H-pyrazolo[4,3-b]pyridin-3-amine] |
| 832 | Cc1nn(CC(=O)O)c2ccc(Nc3n[nH]c4cccnc34)cc12 [Example 135, 2-(5-((1H-pyrazolo[4,3-b]pyridin-3-yl)amino)-3-methyl-1H-indazol-1-yl)acetic acid] |
| 253 | CCC(F)(F)Cn1nc(C)c2cc(Nc3n[nH]c4cccnc34)ccc21 [Example 136, N-(1-(2,2-difluorobutyl)-3-methyl-1H-indazol-5-yl)-1H-pyrazolo[4,3-b]pyridin-3-amine] |
| 436 | CCC(F)(F)Cn1nc(C)c2cc(Nc3n[nH]c4ncccc34)ccc21 [Example 137, N-(1-(2,2-difluorobutyl)-3-methyl-1H-indazol-5-yl)-1H-pyrazolo[3,4-b]pyridin-3-amine] |
| 3400 | Cc1nn(C(=O)C(F)(F)F)c2ccc(Nc3n[nH]c4nccnc34)cc12 [Example 138, 1-(5-((1H-pyrazolo[3,4-b]pyrazin-3-yl)amino)-3-methyl-1H-indazol-1-yl)-2,2,2-trifluoroethan-1-one] |
| 310 | Cc1nn(CC(C)(F)F)c2ccc(Nc3n[nH]c4cccnc34)cc12 [Example 139, N-(1-(2,2-difluoropropyl)-3-methyl-1H-indazol-5-yl)-1H-pyrazolo[4,3-b]pyridin-3-amine] |
| 455 | Clc1n[nH]c2ccc(Nc3n[nH]c4cccnc34)cc12 [Example 140, N-(3-chloro-1H-indazol-5-yl)-1H-pyrazolo[4,3-b]pyridin-3-amine] |
| 815 | CCn1nc(Cl)c2cc(Nc3n[nH]c4cccnc34)ccc21 [Example 141, N-(3-chloro-1-ethyl-1H-indazol-5-yl)-1H-pyrazolo[4,3-b]pyridin-3-amine] |
| > 10000 | c1cnc2c(Nc3cnc4cnn(CC5CCC5)c4c3)n[nH]c2c1 [Example 142, N-(1-(cyclobutylmethyl)-1H-pyrazolo[4,3-b]pyridin-6-yl)-1H-pyrazolo[4,3-b]pyridin-3-amine] |
| > 10000 | Cc1cc(Cn2ncc3ncc(Nc4n[nH]c5nccnc45)cc32)no1 [Example 143, N-(1-((5-methylisoxazol-3-yl)methyl)-1H-pyrazolo[4,3-b]pyridin-6-yl)-1H-pyrazolo[3,4-b]pyrazin-3-amine] |
| > 10000 | Cc1cc(Cn2cc3ncc(Nc4n[nH]c5cccnc45)cc3n2)no1 [Example 144, N-(2-((5-methylisoxazol-3-yl)methyl)-2H-pyrazolo[4,3-b]pyridin-6-yl)-1H-pyrazolo[4,3-b]pyridin-3-amine] |
| > 10000 | Cc1cc(Cn2cc3ncc(Nc4n[nH]c5nccnc45)cc3n2)no1 [Example 145, N-(2-((5-methylisoxazol-3-yl)methyl)-2H-pyrazolo[4,3-b]pyridin-6-yl)-1H-pyrazolo[3,4-b]pyrazin-3-amine] |
| > 10000 | Cc1cc(Cn2ncc3ncc(Nc4n[nH]c5cccnc45)cc32)no1 [Example 146, N-(1-((5-methylisoxazol-3-yl)methyl)-1H-pyrazolo[4,3-b]pyridin-6-yl)-1H-pyrazolo[4,3-b]pyridin-3-amine] |
